Target: T1, AtFHA2 (Arabidopsis thaliana, UniProt Q9SFV2)
T1 construct: gene FHA2; recombinant AtFHA2 (AT3G07220.1)
T1 sequence (Q9SFV2 2-320): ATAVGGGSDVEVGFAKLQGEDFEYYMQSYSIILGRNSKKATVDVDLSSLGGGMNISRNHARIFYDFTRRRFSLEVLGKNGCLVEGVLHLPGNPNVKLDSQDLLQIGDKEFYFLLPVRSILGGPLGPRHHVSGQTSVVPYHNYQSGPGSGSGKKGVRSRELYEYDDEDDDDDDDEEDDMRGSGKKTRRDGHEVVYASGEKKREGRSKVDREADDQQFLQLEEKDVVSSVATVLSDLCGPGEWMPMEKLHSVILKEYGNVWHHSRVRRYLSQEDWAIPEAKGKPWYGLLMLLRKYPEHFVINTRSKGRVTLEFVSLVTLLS
Experiment: isothermal titration calorimetry (ITC) with recombinant protein
Type: binding

Kd [µM] | SMILES
4.9 ± 2.24 | O=P(O)(O)O[C@H]1[C@H](OP(=O)(O)O)[C@@H](OP(=O)(O)O)[C@H](OP(=O)(O)OP(=O)(O)O)[C@@H](OP(=O)(O)O)[C@H]1OP(=O)(O)O [compound 4, 4-PP-InsP5]
> 100 | O=P(O)(O)O[C@H]1[C@H](OP(=O)(O)O)[C@@H](OP(=O)(O)O)[C@H](OP(=O)(O)O)[C@@H](OP(=O)(O)O)[C@H]1OP(=O)(O)O [compound 6, InsP6]
